# Test results: paper PMC8008885 (Journal of Enzyme Inhibition and Medicinal Chemistry, 2021)
# Assays:
# [1] = system: striatum of YAC128 mice; test: Acid histone extraction and Western blot of H3K9 methylation in the striatum of YAC128 mice; format: in vivo, mouse; details: YAC128 mice vs vehicle-treated YAC128 mice
# Description: Cells were homogenised with Dounce homogeniser in […] of phosphate-buffered saline containing 0.4 mM sodium butyrate, 5% Triton X-100, 3 mM DTT, 1 mM sodium orthovanadate, 5 mM sodium fluoride, 3 mM PMSF, 3 mM DTT, 0.5 mg/ml leupeptin, and 10 mg/ml aprotinin as previously described. The nuclear pellets were collected and washed twice with the above-described 5% Triton buffer. Histones were extracted by solubilising in […] of 0.2 M HCl on a shaker for 2 h. After neutralising the pH of the acid-extracted solution containing the histone pool with ammonium acetate, the protein content was quantified. […] After releasing the vacuum, the nitrocellulose membrane was removed and washed twice with TBS-T for 5 min. Then, the nitrocellulose membrane was blocked with 5% milk/TBS-T for 30 min and subsequently incubated with primary antibody in 5% milk/TBS-T for 24 h at cold room. The nitrocellulose membrane was washed twice with TBS-T for 5 min and incubated with secondary antibody in 1% milk (15 ml) for one hour at room temperature. […]
# YAC128 mice were bred with females from their background strain (B6CBAFI/J), and offspring were genotyped using PCR as previously described. […] The biochemical and behavioural/neuropathological symptoms of mice were determined after 4 weeks of drug administration. […]
# [2] = system: YAC128 mice; test: Toxicity on administration to YAC128 mice; format: in vivo; details: HD transgenic (YAC128) mice
# Description: YAC128 mice were bred with females from their background strain (B6CBAFI/J), and offspring were genotyped using PCR as previously described. All mice were weighed at 3 weeks of age and equally distributed according to weight and percentage within each cohort. […] The biochemical and behavioural/neuropathological symptoms of mice were determined after 4 weeks of drug administration. These procedures were performed in accordance with Guide for the Care and Use of Laboratory Animals guidelines. The animal protocol was approved by IACUC (Institutional Animal Care and Use Committee) in Hanyang University, Ansan, Republic of Korea.
smiles,measurement,setting,value
"C=CCOc1cccc2nc(N3CCCC3)ccc12 [APQ, 5-allyloxy-2-(pyrrolidin-1-yl)quinoline]","H3K9me3, H3K9me1 and H3K9me2 levels in the striatum (Western blot)",[1],selectively decreased H3K9me3 levels but not H3K9me1 or H3K9me2 levels
same,toxicity,[2],minimal toxicity
